Reference: patent publication US9382306B2, “Octapeptide compounds derived from somatostatin and the therapeutic use thereof” (IPSEN PHARMA S.A.S., priority 2008, dated 2016)
Bridge positions count the residues as written; N and C are the ends. Square brackets hold non-standard residues; d marks the D form. Peptide text beside a SMILES is read from it. ξ: configuration not given here. d2Nal = N[C@H](Cc1ccc2ccccc2c1)C(=O)O; Thr(3ξ) = CC(O)[C@H](N)C(=O)O

Test: Static release test in PBS
Assay type: physicochemical
Conditions: 75 mM starting concentration, PBS pH 7.4, 37° C., % of free compound
Procedure: Release studies can be carried out on the octapeptide compounds according to the invention in the form of gel, solid, or in suspension. Two types of tests can be envisaged: static release tests and/or dynamic tests, both are briefly described hereafter.
The experimental parameters are common to both types of tests. The release medium is a liquid medium which is physico-chemically well-controlled, preferably a PBS (phosphate buffer saline) buffer adjusted to pH 7.4 and maintained at 37° C. The release curve is defined as the concentration of the studied compound in the dissolution medium (expressed in % of free compound) as a function of time (minutes, hours, days). To initiate the tests, a know quantity of sample is placed in the dissolution medium at time 0 (t=0 min/h/d), the sample being optionally conditioned in a device which is suited to its initial physical state (gel, solid, suspension). Measurements of the concentration of the compound in the release medium are carried out by one or more analytical methods which are well known in the state of the art such as UV-visible spectrophotometry or the HPLC (High Performance Liquid Chromatography). The parameters of the analytical methods are adjusted as a function of the physico-chemical characteristics of the compounds. […]

Row | Structure (SMILES) | Static release after 48 h [%]
1 | CC(C)[C@@H]1NC(=O)[C@H](CCCCN)NC(=O)[C@@H](C)NC(=O)[C@H](Cc2ccc(O)cc2)NC(=O)[C@@H](NC(=O)[C@H](N)Cc2ccc3ccccc3c2)CSSC[C@@H](C(=O)N[C@H](C(N)=O)C(C)O)NC1=O (stereo partly drawn) [Example 4, H-D-2-Nal^1-cyclo(Cys^2Tyr^3-D-Ala^4-Lys^5-Val^6Cys^7)-Thr^8-NH2.2 CH3COOH] (H-[d2Nal]CY[dA]KVC[Thr(3ξ)]-NH2; disulfide 2-7) | 85
2 | CC(C)[C@@H]1NC(=O)[C@H](CCCCN)NC(=O)[C@@H](Cc2cccc3ccccc23)NC(=O)[C@H](Cc2ccc(O)cc2)NC(=O)[C@@H](NC(=O)[C@H](N)Cc2ccc3ccccc3c2)CSSC[C@@H](C(=O)N[C@H](C(N)=O)C(C)O)NC1=O (stereo partly drawn) [Example 6, H-D-2-Nal^1-cyclo(Cys^2Tyr^3-13-(1-naphthyl)-D-Ala^4-Lys^5-Val^6-Cys^7)-Thr^8-NH2.2 CH3COOH] | 25
